Earlier results as cited in patent publication US11351213B2, “Composition for the prevention and/or treatment of respiratory tract disorders” (NEILOS S.R.L., priority 2017, dated 2022).

Assays:
[1] = not given; remark: listed apart in the source
[2] = system: patients affected by COPD; settings: HIACE study
[3] = COPD patients under treatment for six months

O=c1c2ccccc2nc2n1CC[C@@H]2O [Vasicinone, vasicinone]
activity on bronchi in vitro: bronchodilating activity
activity on bronchi in vivo [1]: bronchoconstricting activity

CC(=O)N[C@@H](CS)C(=O)O [NAC, N-acetyl-L-cysteine]
exacerbations ([2]; COPD, reduction from 1.71 times a year): 0.96 times a year
forced expiratory flow ([2]; patients affected by COPD): rose from 25% to 75%
reduction of days of malaise (COPD patients; COPD): 0.56 days/month
reduction of exacerbations of the pathology (COPD patients; COPD): 0.07 exacerbations/month
reduction of hospitalisations for COPD (COPD patients; COPD): 30%
FEV1 (forced expiratory volume at the first second) (COPD patients; [3]): significant increase
maximum expiratory flow (COPD patients; [3]): significant increase
FEV1 (COPD patients; after a brief therapy of 4 weeks): from 25% to 30%

O[C@H]1CCN2Cc3ccccc3N=C12 [vasicine]
activity on bronchi in vitro: bronchodilating activity
activity on bronchi in vivo [1]: bronchodilating activity
